Results from US4284619A, “Esters useful as brain imaging agents” (Medi-Physics, Inc., priority 1978, dated 1981).

Assays:
[1] = Biodistribution bioassay of I-123-labeled compounds in rats, 5 minutes after tail vein injection (blood, brain, heart, stomach activity); type: in vivo, Female Sprague-Dawley rats; settings: rat; for Percent Dose/g. at 5 min. Blood / Percent Dose/g. at 5 min. Brain / Percent Dose/g. at 5 min. Heart: 0.05 to 1.0 mCi, I-123-labeled
Description: Bioassays were performed utilizing compounds from the foregoing examples labeled with I-123 in accordance with the method described in Example 11. Female Sprague-Dawley rats weighing approximately 150 g. were anesthetized with sodium pentobarbital and were injected in a tail vein with from 0.05 to 1.0 mCi (in a volume of 0.2 to 0.5 ml) of the I-123-labeled compound. Two specimens were utilized for each test.
The animals were sacrificed at 5 minutes post injection, the tails discarded and the amount of activity in various organs determined. Each organ was counted at a standardized geometry with a thallium iodide-activated sodium iodide crystal scintillation counter adjusted for the 159 keV emission of I-123. The organs were also weighed to one thousandth of a gram and the activity calculated as a percent of administered dose per gram organ weight.
The ratio of brain-to-blood activity was calculated as a percent of administered dose per gram. The important determinations are the amount of activity in the brain and the brain/blood ratio. The amount of activity in the stomach is related to loss of the I-123-label. For comparative purposes, I-123 antipyrine was utilized as a standard.

[2] = prior art brain imaging agent; cited from earlier work
[3] = i.v. tail vein, ratio of percent dose per gram
[4] = i.v. tail vein, stomach, related to loss of the I-123-label

Compound | Percent Dose/g. at 5 min. Blood ([1]; i.v. tail vein) | Percent Dose/g. at 5 min. Brain ([1]; i.v. tail vein) | Percent Dose/g. at 5 min. Heart ([1]; i.v. tail vein) | Ratio Brain/Blood [1, 3] | Ratio Heart/Blood [1, 3] | Percent Dose in Stomach [1, 4] | Percent Dose in Stomach ([1]; in vivo, iv) | Ratio Brain/Blood ([1]; in vivo, iv) | Ratio Heart/Blood ([1]; in vivo, iv) | loss of the iodine label in the brain [2]
pyridoxyl o-iodobenzoate [Example 9] | 1.61 Percent Dose/g. | 0.31 Percent Dose/g. | 1.02 Percent Dose/g. | 0.19 | 0.63 | 0.93 Percent Dose |  |  |  | 
CCCCCCCCCCCCCCCCCCOC(=O)c1ccccc1[123I] [Example 10, octadecyl o-iodobenzoate] |  |  |  |  |  |  | 0.92 Percent Dose | 0.12 | 0.53 | 
O=C(Oc1cccc(O)c1O)c1ccccc1[123I] [Example 8, pyrogallyl o-iodobenzoate] |  |  |  |  |  |  | 0.77 Percent Dose | 0.08 | 0.51 | 
CCOC(=O)c1ccccc1[123I] [Example 2, ethyl o-iodobenzoate] |  |  |  |  |  |  | 0.81 Percent Dose | 0.14 | 0.59 | 
O=C(Oc1ccccc1)c1ccccc1[123I] [Example 6, phenyl o-iodobenzoate] |  |  |  |  |  |  | 0.92 Percent Dose | 0.20 | 0.60 | 
glyceryl o-iodobenzoate [Example 5] | 1.67 Percent Dose/g. | 0.73 Percent Dose/g. | 1.12 Percent Dose/g. | 0.43 | 0.67 | 0.79 Percent Dose |  |  |  | 
Cc1c([123I])c(=O)n(-c2ccccc2)n1C [^I 123-iodoantipyrine, 4-iodoantipyrine, reference compound] |  |  |  |  |  |  | 2.23 Percent Dose |  |  | significant loss of the iodine label in the brain
O=C(OCc1ccccc1)c1ccccc1[123I] [Example 7, benzyl o-iodobenzoate] |  |  |  |  |  |  | 1.46 Percent Dose | 0.25 | 0.65 | 
